Experimental data as given in ChEMBL document CHEMBL3400045, “Synthesis and ABCG2 inhibitory evaluation of 5-N-acetylardeemin derivatives” (Bioorg Med Chem, 2015).

Columns and labels:
Type in all cases: cell-based
[1] = target: T1, ABCG2 (Homo sapiens, UniProt Q9UNQ0); assay: Inhibition of ABCG2 (unknown origin) transfected in Flp-In-293 cells assessed as inhibition of Hoechst 33342 efflux measured as inhibition ratio after 90 mins by flow cytometry; parameters: concentration or dose not given beside the values; conditions: Flp-In-293 cells transfected with ABCG2, probe Hoechst 33342
T1 sequence (Q9UNQ0 whole entry): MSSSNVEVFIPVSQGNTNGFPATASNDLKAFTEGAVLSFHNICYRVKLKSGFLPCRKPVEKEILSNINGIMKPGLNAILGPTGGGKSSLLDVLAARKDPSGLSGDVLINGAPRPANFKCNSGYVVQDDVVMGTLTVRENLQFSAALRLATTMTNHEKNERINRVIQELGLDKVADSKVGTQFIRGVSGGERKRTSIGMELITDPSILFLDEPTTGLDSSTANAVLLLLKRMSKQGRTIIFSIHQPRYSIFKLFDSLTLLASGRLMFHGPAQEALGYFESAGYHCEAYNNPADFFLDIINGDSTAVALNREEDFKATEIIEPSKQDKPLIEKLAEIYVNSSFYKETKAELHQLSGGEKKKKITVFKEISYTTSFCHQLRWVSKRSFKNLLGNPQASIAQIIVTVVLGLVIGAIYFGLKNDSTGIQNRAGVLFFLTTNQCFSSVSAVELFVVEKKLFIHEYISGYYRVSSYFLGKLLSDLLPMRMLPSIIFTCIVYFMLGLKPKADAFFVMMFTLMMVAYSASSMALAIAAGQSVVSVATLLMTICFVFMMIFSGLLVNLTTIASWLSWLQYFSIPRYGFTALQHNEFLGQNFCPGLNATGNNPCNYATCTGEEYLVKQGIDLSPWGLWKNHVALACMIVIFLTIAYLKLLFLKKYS

[2] = target: T2, Broad substrate specificity ATP-binding cassette transporter ABCG2 (Homo sapiens, UniProt Q9UNQ0); assay: (§1) Inhibition of ABCG2 (unknown origin) transfected in Flp-In-293 cells assessed as inhibition of Hoechst 33342 efflux after 90 mins by flow cytometry; conditions: 1.5 h
T2 sequence (Q9UNQ0 whole entry): T1 sequence (Q9UNQ0 whole entry)

[3] = target: T1, ABCG2; assay: as §1; conditions: Flp-In-293 cells transfected with ABCG2, probe Hoechst 33342

Row | SMILES | inhibition at 1.5 h [1] | inhibition (INH) [2] | inhibition at 1.5 h [3]
1 | C=CC(C)(C)[C@@]12C[C@H]3c4nc5ccccc5c(=O)n4[C@H](C)C(=O)N3[C@@H]1N(C(C)=O)c1ccccc12 | 21.8% | – | –
2 | C=CC(C)(C)[C@@]12C[C@H]3c4nc5ccc(F)cc5c(=O)n4[C@H](C)C(=O)N3[C@@H]1N(C(C)=O)c1ccccc12 | 34.6% | Active | –
3 | C=CC(C)(C)[C@@]12C[C@H]3c4nc5ccc(Cl)cc5c(=O)n4[C@H](C)C(=O)N3[C@@H]1N(C(C)=O)c1ccccc12 | 66.8% | Active | –
4 | C=CC(C)(C)[C@@]12C[C@H]3c4nc5ccc(Br)cc5c(=O)n4[C@H](C)C(=O)N3[C@@H]1N(C(C)=O)c1ccccc12 | 64.5% | Active | –
5 | C=CC(C)(C)[C@@]12C[C@H]3c4nc5cc(Br)ccc5c(=O)n4[C@H](C)C(=O)N3[C@@H]1N(C(C)=O)c1ccccc12 | – | Active | –
6 | C=CC(C)(C)[C@@]12C[C@H]3c4nc5ccc(I)cc5c(=O)n4[C@H](C)C(=O)N3[C@@H]1N(C(C)=O)c1ccccc12 | 35.4% | Active | –
7 | C=CC(C)(C)[C@@]12C[C@H]3c4nc5ccc(OC)cc5c(=O)n4[C@H](C)C(=O)N3[C@@H]1N(C(C)=O)c1ccccc12 | – | Active | –
8 | C=CC(C)(C)[C@@]12C[C@H]3c4nc5ccc(C#N)cc5c(=O)n4[C@H](C)C(=O)N3[C@@H]1N(C(C)=O)c1ccccc12 | – | Active | –
9 | C=CC(C)(C)[C@@]12C[C@H]3c4nc5ccc(-c6ccccc6)cc5c(=O)n4[C@H](C)C(=O)N3[C@@H]1N(C(C)=O)c1ccccc12 | – | Active | –
10 | C=CC(C)(C)[C@@]12C[C@H]3c4nc5ccccc5c(=O)n4[C@H](C)C(=O)N3[C@@H]1N(C(C)=O)c1ccc(Br)cc12 | – | Active | –
11 | C=CC(C)(C)[C@@]12C[C@H]3c4nc5ccccc5c(=O)n4[C@H](C)C(=O)N3[C@@H]1N(C(C)=O)c1ccc(C3CCCCC3)cc12 | – | Active | –
12 | C=CC(C)(C)[C@@]12C[C@H]3c4nc5ccccc5c(=O)n4[C@H](C)C(=O)N3[C@@H]1N(C(C)=O)c1ccc(-c3ccccc3)cc12 | – | Active | –
13 | C=CC(C)(C)[C@@]12C[C@H]3c4nc5ccccc5c(=O)n4[C@H](C)C(=O)N3[C@@H]1N(C(C)=O)c1ccc(-c3ccc(C)cc3)cc12 | – | Active | –
14 | C=CC(C)(C)[C@@]12C[C@H]3c4nc5ccccc5c(=O)n4[C@H](C)C(=O)N3[C@@H]1N(C(C)=O)c1ccc(-c3ccc(OC)cc3)cc12 | – | Active | –
15 | C=CC(C)(C)[C@@]12C[C@H]3c4nc5ccccc5c(=O)n4[C@H](C)C(=O)N3[C@@H]1N(C(C)=O)c1ccc(-c3ccc(C#N)cc3)cc12 | – | Active | –
16 | C=CC(C)(C)[C@@]12C[C@H]3c4nc5ccccc5c(=O)n4[C@H](C)C(=O)N3[C@@H]1N(C(C)=O)c1ccc(-c3ccc(-c4ccccc4)cc3)cc12 | – | Active | –
17 | C=CC(C)(C)[C@]12C[C@@H](C(=O)Nc3ccccc3C(=O)OC)N(C(=O)[C@@H](C)NC(=O)OC(C)(C)C)[C@H]1N(C(C)=O)c1ccccc12 | – | – | 27.5%
